Data on 18 compounds can be found in patent US9776987B2, “Amide derivatives for GPR119 agonist” (CHONG KUN DANG PHARMACEUTICAL CORP., priority 2013, dated 2017).

For this assay, the target named is T1, human GPR119 receptor (Homo sapiens, UniProt Q8TDV5).
T1 construct: host or cells: GeneBLAzer T-Rex GPR 119 CHO-K1 DA cells (CHO-K1)
T1 sequence (Q8TDV5 1-335): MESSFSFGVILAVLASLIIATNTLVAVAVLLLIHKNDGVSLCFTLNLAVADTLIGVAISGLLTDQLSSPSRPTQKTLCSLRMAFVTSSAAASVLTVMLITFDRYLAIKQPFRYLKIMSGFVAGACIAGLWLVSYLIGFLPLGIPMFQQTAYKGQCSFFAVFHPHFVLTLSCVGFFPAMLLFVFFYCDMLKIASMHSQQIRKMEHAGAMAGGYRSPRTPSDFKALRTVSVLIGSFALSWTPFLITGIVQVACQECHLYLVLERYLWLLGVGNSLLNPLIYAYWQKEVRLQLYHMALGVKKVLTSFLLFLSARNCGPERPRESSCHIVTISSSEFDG
The assay is described as follows: Activity test for human GPR119 receptor (GeneBLAzer T-Rex GPR 119 CHO-K1 DA cells). In kind it is cell-based. The note with it: for EC50: human GPR119 receptor expressing CHO-K1 cells, 5 hours treatment, read-out: hGPR119 EC50; for activity for human GPR119 receptor (in words): judgement on the EC50 values of Table 11. On the procedure:
1. Human GPR119 Receptor Cell
As a human GPR119 receptor expression cell for this test, the cell line “GeneBLAzer™ T-Rex GPR 119 CHO-K1 DA cells” that is commercially available from Invitrogen, was used. The cell was incubated in the DMEM media containing 1% dialyzed fetal bovine serum etc. The cell incubator was kept at constant temperature and constant humidity of 37° C., 5% CO2.
2. Activity Test for Human GPR119 Receptor
The human GPR119 receptor expressing cell was used to this test. Each of test compounds was added to be final concentrations of 0.1, 1, 10 μM in 96 well and tested in duplicate. A fixed amount of cell was added to each well of 96 well separately, and then treated with the test compound for 5 hours. After treatment of color development agent for 2 hours, the fluorescence value was determined with plate reader. To the luminous wavelength of control well, which was not treated with the sample, but in which only a vehicle […] was contained, the ratio of the luminous wavelength of test well, which was treated with the sample, was calculated, and then converted to obtain EC50 value.
3. Statistical Processing
All the results were expressed as mean±SD, and each test groups and the control group were compared using student's t-test to adjudge the effects of each test groups.

With `NC(=O)[C@@H]1C[C@@H](O)CN1C(=O)c1ccc(-c2cnc(OCC3CCN(CC4(C(F)(F)F)CCC4)CC3)cn2)cc1F` [Compound 1200, (2S,4R)-1-(2-fluoro-4-(5-((1-((1-(trifluoromethyl)cyclobutyl)methyl)piperidin-4-yl)methoxy)pyrazin-2-yl)benzoyl)-4-hydroxypyrrolidin-2-carboxamide], the half-maximal effective concentration (EC50) is 0.8 nM and the “activity for human GPR119 receptor (in words)” value (from here on “activity”) was “excellent activity”.
On to `CC(C)(F)CN1CCC(COc2cnc(-c3ccc(C(=O)N4CCC[C@@]4(C)C(N)=O)c(F)c3)nc2)CC1` [Compound 1206, (S)-1-(2-fluoro-4-(5-((1-(2-fluoro-2-methylpropyl)piperidin-4-yl)methoxy)pyrimidin-2-yl)benzoyl)-2-methylpyrrolidin-2-carboxamide], for which the EC50 came to 9 nM.
As to `NC(=O)[C@@H]1C[C@H](F)CN1C(=O)c1ccc(-c2cnc(OCC3CCN(CC4(C(F)(F)F)CCC4)CC3)cn2)cc1` [Compound 1209, (2S,4S)-4-fluoro-1-(4-(5-((1-((1-(trifluoromethyl)cyclobutyl)methyl)piperidin-4-yl)methoxy)pyrazin-2-yl)benzoyl)pyrrolidin-2-carboxamide], the EC50 came to 0.09 nM.
As for `CCC(F)(CC)CN1CCC(COc2ccc(-c3ccc(C(=O)N4C[C@@H](F)C[C@H]4C(N)=O)cc3F)cc2)CC1` [Compound 1210, (2S,4S)-1-(4′-((1-(2-ethyl-2-fluorobutyl)piperidin-4-yl)methoxy)-2-fluorobiphenylcarbonyl)-4-fluoropyrrolidin-2-carboxamide], the 50% effective concentration (EC50) came to 0.2 nM.
On the same count and under the same terms, to `CCC(F)(CC)CN1CCC(COc2ccc(-c3ccc(C(=O)N4C[C@@H](F)C[C@H]4C(N)=O)c(F)c3)cc2)CC1` [Compound 1211, (2S,4S)-1-(4′-((1-(2-ethyl-2-fluorobutyl)piperidin-4-yl)methoxy)-3-fluorobiphenylcarbonyl)-4-fluoropyrrolidin-2-carboxamide] belongs 0.08 nM; to `NC(=O)[C@@H]1[C@@H](O)CCN1C(=O)c1ccc(-c2ccc(OCC3CCN(CC4(C(F)(F)F)CCC4)CC3)cc2)c(F)c1` [Compound 1220, (2S,3S)-1-(2-fluoro-4′-((1-((1-(trifluoromethyl)cyclobutyl)methyl)piperidin-4-yl)methoxy)biphenylcarbonyl)-3-hydroxypyrrolidin-2-carboxamide], 0.1 nM.
The same measure, in the same setting: under `CCC(F)(F)CN1CCC(COc2ccc(-c3ccc(C(=O)N4CCC[C@H]4C(N)=O)c(F)c3)cn2)CC1` [Compound 1238, (S)-1-(4-(6-((1-(2,2-difluorobutyl)piperidin-4-yl)methoxy)pyridin-3-yl)-2-fluorobenzoyl)pyrrolidin-2-carboxamide] stands 0.9 nM; under `NC(=O)[C@@H]1CCCN1C(=O)c1ccc(-c2ccc(OCC3CCN(CC(F)(F)C(F)(F)F)CC3)cc2)cc1F` [Compound 1239, (S)-1-(3-fluoro-4′-((1-(2,2,3,3,3-pentafluoropropyl)piperidin-4-yl)methoxy)biphenylcarbonyl)pyrrolidin-2-carboxamide], 0.1 nM; under `CCC(F)(CC)CN1CCC(COc2ccc(-c3ccc(C(=O)N4CC[C@H](O)[C@H]4C(N)=O)c(F)c3)cc2F)CC1` [Compound 1244, (2S,3S)-1-(4′-((1-(2-ethyl-2-fluorobutyl)piperidin-4-yl)methoxy)-3,3′-difluorobiphenylcarbonyl)-3-hydroxypyrrolidin-2-carboxamide], 0.3 nM.
Consider `CCC(F)(CC)CN1CCC(COc2ccc(-c3ccc(C(=O)N4CC[C@H](O)[C@H]4C(N)=O)cc3)c(F)c2)CC1` [Compound 1245, (2S,3S)-1-(4′-((1-(2-ethyl-2-fluorobutyl)piperidin-4-yl)methoxy)-2′-fluorobiphenylcarbonyl)-3-hydroxypyrrolidin-2-carboxamide], for which the EC50 was 1 nM.
For the compound `NC(=O)[C@@H]1[C@@H](O)CCN1C(=O)c1ccc(-c2cnc(OCC3CCN(CC4(C(F)(F)F)CCC4)CC3)cn2)cc1F` [Compound 1249, (2S,3S)-1-(2-fluoro-4-(5-((1-((1-(trifluoromethyl)cyclobutyl)methyl)piperidin-4-yl)methoxy)pyrazin-2-yl)benzoyl)-3-hydroxypyrrolidin-2-carboxamide], the EC50 is 0.1 nM and the “activity” value was “excellent activity”.
The matching figures for `NC(=O)[C@@H]1[C@@H](O)CCN1C(=O)c1ccc(-c2cnc(OCC3CCN(CC4(C(F)(F)F)CCC4)CC3)cn2)c(F)c1` [Compound 1253, (2S,3S)-1-(3-fluoro-4-(5-((1-((1-(trifluoromethyl)cyclobutyl)methyl)piperidin-4-yl)methoxy)pyrazin-2-yl)benzoyl)-3-hydroxypyrrolidin-2-carboxamide]: 0.2 nM and “excellent activity”.
As to `NC(=O)[C@@H]1C[C@@H](O)CN1C(=O)c1ccc(-c2ccc(OCC3CCN(CC4(C(F)(F)F)CCC4)CC3)cc2)c(F)c1` [Compound 1255], the EC50 is 2 nM and the “activity” value is given as “excellent activity”.
Regarding `NC(=O)[C@@H]1C[C@@H](O)CN1C(=O)c1ccc(-c2ccc(OCC3CCN(CC(F)(F)C(F)(F)F)CC3)cc2)cc1F` [Compound 1256, (2S,4R)-1-(3-fluoro-4′-((1-(2,2,3,3,3-pentafluoropropyl)piperidin-4-yl)methoxy)biphenylcarbonyl)-4-hydroxypyrrolidin-2-carboxamide], the EC50 was found to be 0.4 nM.
Same read-out and setting: under `CCC(F)(CC)CN1CCC(COc2cnc(-c3ccc(C(=O)N4C[C@H](O)C[C@H]4C(N)=O)c(F)c3)nc2)CC1` [Compound 1257, (2S,4R)-1-(4-(5-((1-(2-ethyl-2-fluorobutyl)piperidin-4-yl)methoxy)pyrimidin-2-yl)-2-fluorobenzoyl)-4-hydroxypyrrolidin-2-carboxamide] stands 10 nM; under `C[C@@]1(C(N)=O)C[C@@H](O)CN1C(=O)c1ccc(-c2ccc(OCC3CCN(CC4(C(F)(F)F)CCC4)CC3)cc2)c(F)c1` [Compound 1258, (2S,4R)-1-(2-fluoro-4′-((1-((1-(trifluoromethyl)cyclobutyl)methyl)piperidin-4-yl)methoxy)biphenylcarbonyl)-4-hydroxy-2-methylpyrrolidin-2-carboxamide], 1 nM.
Still for that read-out and setting: under `CC(C)(F)CN1CCC(COc2ccc(-c3ccc(C(=O)N4CCC[C@@]4(C)C(N)=O)c(F)c3)cc2C#N)CC1` [Compound 1259, (S)-1-(3′-cyano-3-fluoro-4′-((1-(2-fluoro-2-methylpropyl)piperidin-4-yl)methoxy)biphenylcarbonyl)-2-methylpyrrolidin-2-carboxamide] stands 5 nM.
In the case of `NC(=O)C1CC(O)CCN1C(=O)c1ccc(-c2cnc(OCC3CCN(CC4(C(F)(F)F)CCC4)CC3)cn2)cc1F` (centres unmarked) [Compound 1262, 1-(2-fluoro-4-(5-((1-((1-(trifluoromethyl)cyclobutyl)methyl)piperidin-4-yl)methoxy)pyrazin-2-yl)benzoyl)-4-hydroxypiperidin-2-carboxamide], the EC50 amounted to 0.8 nM and the “activity” value is recorded as “excellent activity”.
